Reference: patent publication US20220088040A1, “Use of System XC-Inhibitor for Treating Statin-Induced Myalgia” (Exerkine Corporation, priority 2017, published 2022)

Experiments:
[1] = tested on: C2C12 myotubes; test: Glutamate efflux from C2C12 myotubes (Amplex Red glutamic acid assay of culture media); assay type: cell-based, murine; settings: for effect on glutamate efflux caused by atorvastatin: sulfasalazine 20 μM, cysteamine bitartrate 100 and 300 μM, vitamin E 100 μM, coenzyme Q10 50 μM; for glutamate efflux levels: co-treated with atorvastatin 5 μM and sulfasalazine 20 μM
[2] = tested on: Sprague Dawley rats; test: Extramyocellular glutamate in rat gastrocnemius muscle by interstitial microdialysis; assay type: in vivo; settings: 10 days, muscle dialysate (FIG. 6)
[3] = tested on: primary human fibroblasts; test: Glutamate efflux from primary human fibroblasts; assay type: cell-based; settings: statin (atorvastatin 5 μM) (FIG. 3B)
[4] = tested on: system Xc- subunit xCT; test: xCT protein content in C2C12 myotubes by chemiluminescent immunoblot; assay type: cell-based, murine; settings: atorvastatin 5 μM
[5] = tested on: primary human myoblasts; settings: co-treatment of statin (atorvastatin 5 μM) with sulfasalazine 20 μM (FIG. 3A)
[6] = 5 μM atorvastatin, combination 100 μM vitamin E + 35 μM coenzyme Q10, N-acetylcysteine 5 mM (FIG. 4)
[7] = 7.5 μM atorvastatin, combination 100 μM vitamin E + 35 μM coenzyme Q10, N-acetylcysteine 5 mM (FIG. 5)

Row | Compound | effect on glutamate efflux caused by atorvastatin [1, 6] | effect on glutamate efflux caused by atorvastatin [1, 7] | further results
1 | NCCS.O=C(O)C(O)C(O)C(=O)O (stereo not shown) [Cysteamine bitartrate] | mitigated | mitigated | 
2 | CC(=O)N[C@@H](CS)C(=O)O [N-acetylcysteine] | substantially increased | substantially increased | 
3 | CC(C)c1c(C(=O)Nc2ccccc2)c(-c2ccccc2)c(-c2ccc(F)cc2)n1CC[C@@H](O)C[C@@H](O)CC(=O)O [atorvastatin] |  |  | increase in extramyocellular glutamate concentrations compared with the Control group ([2]; atorvastatin 40 mg/kg/day oral): 21%; extracellular glutamate concentrations [3]: no changes; elevated xCT protein level ([4]; 24 hour time point (FIG. 1)): still present; elevation in xCT abundance ([4]; after 12 hours, vs vehicle (FIG. 1)): approximately 2 fold
4 | O=C(O)c1cc(/N=N/c2ccc(S(=O)(=O)Nc3ccccn3)cc2)ccc1O [sulfasalazine] | inhibited | inhibited | extramyocellular glutamate concentrations, lower than Control ([2]; atorvastatin 40 mg/kg/day with sulfasalazine 200 mg/kg/day oral): 19%; glutamate efflux / extracellular glutamate levels [5]: blocked this efflux and further reduced extracellular glutamate levels to those below the vehicle control group; glutamate efflux levels ([1]; 6 hour time point (FIG. 2)): initial increase; glutamate efflux levels ([1]; 12 hour to 24 hour time points (FIG. 2)): declined to baseline levels; glutamate efflux ([1]; sulfasalazine alone 20 μM, throughout the 0-24 h treatment period (FIG. 2)): around those of baseline values
5 | COc1c(O)c(C)c(C/C=C(\C)CC/C=C(\C)CC/C=C(\C)CC/C=C(\C)CC/C=C(\C)CC/C=C(\C)CC/C=C(\C)CC/C=C(\C)CC/C=C(\C)CCC=C(C)C)c(O)c1OC [ubiquinol] | mitigated | mitigated | 
6 | vitamin E | mitigated | mitigated | 
